“Also recorded” adds a separate entry of the source. Where two headings read alike, the source gives them in different places.
What was measured:
[1] = tested on: testosterone 5α-reductase; test: In vitro testosterone 5α-reductase inhibitor assay; format: biochemical; conditions: at a dose of at least 0.1 mM; dog and rat prostates
Description: The following five (5) compounds of the present invention were tested in an in vitro testosterone 5α-reductase inhibitor assay: 3-(α-Ethylbenzyl)-6-(α-ethylphenethyl)-4-hydroxy-2H-pyran-2-one; 6-(1-Benzyl-propyl)-3-(cyclopropyl-phenyl-methyl)-4-hydroxy-pyran-2-one; 3-(α-Ethylbenzyl)-6-(α-ethylbenzyl)-4-hydroxy-2H-pyran-2-one; 3-(α-Ethylbenzyl)-6-phenethyl-4-hydroxy-2H-pyran-2-one; 4-Hydroxy-3-(1-phenylpropyl)-6-[1-[(tetrahydro-2H-pyran-3-yl)methyl]propyl]-2H-pyran-2-one. This assay is very similar to those described in the following references, except for the use of dog and rat prostates in place of human prostates: Proc. Natl. Acad. Sci. USA, Vol. 90: 5277-5281 (1993); J. Steroid. Biochem. Molec. Biol., Vol. 44, No. 2, pp. 121-131 (1993). All five (5) compounds had activity in this assay at a dose of at least 0.1 mM.

[2] = target: T1, HIV-1 protease (Human immunodeficiency virus type 1 group M subtype B, UniProt P04585); test: In vitro HIV protease inhibitory assay (HIV Protease FITC Assay); format: biochemical; conditions: for inhibition at 1 µM / inhibition at 10 µM / inhibition at 100 µM / inhibition at 0.123 µM / inhibition at 0.37 µM / inhibition at 1.1 µM / inhibition at 3.3 µM / inhibition at 30 µM: read-out: HIV-1 Protease % Inhib
T1 construct: The protease (or proteinase), consisting of only 99 amino acids, is among the smallest enzymes known
In short: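 Biotin/FITC-labelled peptide substrate cleaved by HIV-1 protease for 1 h at room temperature in the dark, in 0.1 M sodium acetate pH 5.5, 1.0 M NaCl, 0.05% NP-40. Uncleaved substrate captured on avidin beads and separated by filtration; fluorescence gave % inhibition.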

[3] = Four week oral drug safety and toxicity study in beagle dogs (prostate size and weight); format: in vivo
From the text: Daily oral doses were divided into two (2) equal doses with at least seven (7) hours between the morning and afternoon dose. Parameters evaluated included twice daily clinical observations; daily evaluation of food and water consumption; twice weekly body weights; pretest and dosage day (dd) 15 or 16 and 24 or 25 electrocardiograms; pretest and dd 23 or 24 ophthalmology examinations; pretest and dd 1, 8, 14, 21 and 28 plasma drug levels; pretest and dd 8, 14, and 28 hemograms and serum chemistries; pretest and dd 14 and 28 urinalyses; terminal body weights, gross necropsy observations and absolute and relative organ weights; and histopathologic evaluation of organs and tissues.

[4] = tested on: HIV-1IIIB; test: Inhibition of retroviral replication in infected human T-cell lines (MT4, H9); format: cell-based; conditions: e.g., MT4 and H9, infected with HIV-1IIIB
Description: Several compounds of the present invention, such as 3-(alpha-ethylbenzyl)-6-(alpha-ethylphenethyl)-4-hydroxy-2H-pyran-2-one, were tested in known human cell lines, such as human T-cell lines, e.g., MT4 and H9, which were infected with HIV-1IIIB, and certain of these compounds were further tested in peripheral blood mononuclear cells (PBMC), which were infected with HIV-1JRCSF (a clinical isolate).

[5] = male dogs, group 2, 50 mg/kg/day oral, 28 days, n=3
[6] = male dogs, group 3, 100 mg/kg/day oral, 28 days, n=3
[7] = male dogs, group 4, 200 mg/kg/day oral, 28 days, n=3
[8] = male dogs, group 5, 400 mg/kg/day oral, 28 days, n=3
[9] = repeat study, 400 mg/kg/day, 4 dogs
[10] = repeat study, male dogs, group 7, 400 mg/kg/day, n=4

Molecule	inhibition at 10 µM ([2]; HIV-1 Dose 10.000 uM) [%]	inhibition at 0.123 µM ([2]; HIV-1 Dose 0.123 uM) [%]	inhibition at 0.37 µM ([2]; HIV-1 Dose 0.370 uM) [%]	inhibition at 1.1 µM ([2]; HIV-1 Dose 1.100 uM) [%]	inhibition at 3.3 µM ([2]; HIV-1 Dose 3.300 uM) [%]	inhibition at 30 µM ([2]; HIV-1 Dose 30.000 uM) [%]	Ki ([2]; read-out: HIV-1 FITC Ki) [nM]	other results
CCC(c1ccccc1)c1c(O)cc(CCc2ccccc2)oc1=O (stereo not drawn) [Example 3, 3-(α-ethylbenzyl)-6-phenethyl-4-hydroxy-2H-Pyran-2-one]	67.4							activity in testosterone 5α-reductase inhibitor assay [1]: had activity; inhibition at 1 µM ([2]; HIV-1 Dose 1.000 uM): 19%
CCC(Cc1ccccc1)c1cc(O)c(C(CC)c2ccccc2)c(=O)o1 (stereo not drawn) [Example 13, 3-(α-ethylbenzyl)-6-(αethylphenethyl)-4-hydroxy-2H-Pyran-2-one]	92							activity in testosterone 5α-reductase inhibitor assay [1]: had activity; light microscopic examination of testes, adrenals and pituitaries ([3]; high dose versus control): did not show drug-related changes; Absolute Weight (mean prostate weight) [3, 5]: 8.87 GMs; Relative Weight* (mean prostate weight) [3, 5]: 0.088 % body weight; Absolute Weight (mean prostate weight) [3, 6]: 7.55 GMs; Relative Weight* (mean prostate weight) [3, 6]: 0.074 % body weight; Absolute Weight (mean prostate weight) [3, 7]: 4.58 GMs; Relative Weight* (mean prostate weight) [3, 7]: 0.046 % body weight; Absolute Weight (mean prostate weight) [3, 8]: 4.43 GMs; Relative Weight* (mean prostate weight) [3, 8]: 0.044 % body weight; prostate size and weight ([3]; male dogs, oral 50 to 400 mg/kg/day, 28 days): dose-related decrease in prostate size and weight; also recorded: dose related decrease in prostate size and weight; dogs with marked decreases of prostate weight [3, 9]: 1/4; high dose dogs with lower absolute and relative prostate weights than controls [3, 9]: 2/4; Absolute Weight (mean prostate weight) [3, 10]: 5.65 GMs; Relative Weight* (mean prostate weight) [3, 10]: 0.055 % body weight; IC50 [2]: 1300 nM; inhibition at 1 µM ([2]; HIV-1 Dose 1.000 uM): 79.5%; inhibition at 100 µM ([2]; HIV-1 Dose 100.000 uM): 72%; retroviral replication [4]: found to inhibit retroviral replication
CCC(Cc1ccccc1)c1cc(O)c(C(c2ccccc2)C2CC2)c(=O)o1 (stereo not shown) [Example 86, 6-(1-Benzyl-propyl)-3-(cyclopropyl-phenyl-methyl)-4-hydroxy-pyran-2-one]	83							activity in testosterone 5α-reductase inhibitor assay [1]: had activity; inhibition at 1 µM ([2]; HIV-1 Dose 1.000 uM): 58.1%; inhibition at 100 µM ([2]; HIV-1 Dose 100.000 uM): 55.3%
CCC(CC1CCCOC1)c1cc(O)c(C(CC)c2ccccc2)c(=O)o1 (stereo not shown) [Example 135, 4-Hydroxy-3-(1-phenylpropyl)-6-[1-[(tetrahydro-2H-pyran-3-yl)methyl]propyl]-2H-pyran-2-one]	103	12.4	26.5	65.6	87.9	99.9	45	activity in testosterone 5α-reductase inhibitor assay [1]: had activity
O=c1oc(C(CC2CC2)CC2CCCOC2)cc(O)c1C(c1ccccc1)C1CC1 (stereo not drawn) [Example 243, 3-(α-Cyclopropylbenzyl)-6-[1-cyclopropylmethyl-2-(tetrahydropyran-3-yl)ethyl]-4-hydroxy-2H-pyran-2-one]	105	< 10	36.2	70.5	94.7	102	69	
CCS(=O)(=O)Nc1cccc(C(c2c(O)cc(C(CC3CC3)CC3CCCOC3)oc2=O)C2CC2)c1 (stereo not shown) [Example 244]	103	20.7	57.9	81.9	90.6	99.4	15.4	
Cc1ccc(S(=O)(=O)Nc2cccc(C(c3c(O)cc(C(CC4CC4)CC4CCCOC4)oc3=O)C3CC3)c2)cc1 (stereo not shown) [Example 245]	96.9	25.9	58	83.3	90.3	94.1	20.6	
CCC(Cc1ccccc1)c1cc(O)c(C(c2cccc(NS(=O)(=O)c3ccc(C)cc3)c2)C2CC2)c(=O)o1 (stereo not shown) [Example 246]	92.7	24.7	60.1	79.9	92.3	93.3	21.6	
CCC(Cc1ccccc1)c1cc(O)c(C(c2cccc(NS(=O)(=O)CC)c2)C2CC2)c(=O)o1 (stereo not shown) [Example 247]	96.1	14.1	47	73.1	86.7	97	30.4	
CCC(Cc1ccccc1)c1cc(O)c(C(c2cccc(NC(=O)Cc3cccnc3)c2)C2CC2)c(=O)o1 (stereo not drawn) [Example 248, 3-(α-Cyclopropyl-meta-(3-pyridylacetylamino)benzyl)-6-(α-ethylphenethyl)-4-hydroxy-2H-pyran-2-one]	101	< 10	31.6	63.7	86.5	99.2	61.7	
CCC(Cc1ccccc1)c1cc(O)c(C(c2cccc(NC(=O)Cc3ccncc3)c2)C2CC2)c(=O)o1 (stereo not drawn) [Example 249, 3-(α-Cyclopropyl-meta-(4-pyridylacetylamino)benzyl)-6-(α-ethylphenethyl)-4-hydroxy-2H-pyran-2-one]								Ki [2]: 44.4 nM; inhibition at 0.123 µM [2]: < 10%; inhibition at 0.37 µM [2]: 40%; inhibition at 1.1 µM [2]: 70.3%; inhibition at 3.3 µM [2]: 88.5%; inhibition at 10 µM [2]: 103%; inhibition at 30 µM [2]: 107%
C=CC(c1ccccc1)c1c(O)cc(C)oc1=O (stereo not shown) [PREPARATION 10, 4-Hydroxy-6-methyl-3-(1'-phenyl-2'-propenyl)-2-pyrone]	< 10							HIV activity [2]: found to have HIV activity; inhibition at 1 µM ([2]; HIV-1 Dose 1.000 uM): < 10%; inhibition at 100 µM ([2]; HIV-1 Dose 100.000 uM): 43.5%
Dimethyl 3-[(4-hydroxy-2-oxo-6-phenyl-2H-1-pyran-3-yl)(3-nitrophenyl)methyl] -1,3-propandioate [Example 29]								HIV-1 Protease % Inhib ([2]; HIV-1 Dose 1.000 uM): <10%; HIV-1 Protease % Inhib ([2]; HIV-1 Dose 10.000 uM): <10%; HIV-1 Protease % Inhib ([2]; HIV-1 Dose 100.000 uM): 32.16%
Dimethyl 3-[(4-hydroxy-2-oxo-6-phenyl-2H-1-pyran-3-yl)(4-nitrophenyl)methyl] - 1,3-propandioate [Example 28]								HIV-1 Protease % Inhib ([2]; HIV-1 Dose 1.000 uM): <10%; HIV-1 Protease % Inhib ([2]; HIV-1 Dose 10.000 uM): 15.07%; HIV-1 Protease % Inhib ([2]; HIV-1 Dose 100.000 uM): 76.68%

Reference: patent EP1203770A1 (priority 1992, dated 1994)
